Reference: ChEMBL document CHEMBL4270584, “In silico fragment-based drug design with SEED” (Eur J Med Chem, 2018)

Experiments:
Beta-secretase 1 = Beta-secretase 1 (Homo sapiens, UniProt P56817); assay: Inhibition of human BACE-1 after 30 mins by FRET assay
[1] = target: T1, Bromodomain-containing protein 4 (Homo sapiens, UniProt O60885); assay: Binding affinity to human BRD4 bromodomain-1
[2] = target: T2, ATPase family AAA domain-containing protein 2 (Homo sapiens, UniProt Q6PL18); assay: Inhibition of H4K5/8/12/16-Ac-biotin binding to human ATAD2 by Alpha screen assay
T2 sequence (Q6PL18 whole entry): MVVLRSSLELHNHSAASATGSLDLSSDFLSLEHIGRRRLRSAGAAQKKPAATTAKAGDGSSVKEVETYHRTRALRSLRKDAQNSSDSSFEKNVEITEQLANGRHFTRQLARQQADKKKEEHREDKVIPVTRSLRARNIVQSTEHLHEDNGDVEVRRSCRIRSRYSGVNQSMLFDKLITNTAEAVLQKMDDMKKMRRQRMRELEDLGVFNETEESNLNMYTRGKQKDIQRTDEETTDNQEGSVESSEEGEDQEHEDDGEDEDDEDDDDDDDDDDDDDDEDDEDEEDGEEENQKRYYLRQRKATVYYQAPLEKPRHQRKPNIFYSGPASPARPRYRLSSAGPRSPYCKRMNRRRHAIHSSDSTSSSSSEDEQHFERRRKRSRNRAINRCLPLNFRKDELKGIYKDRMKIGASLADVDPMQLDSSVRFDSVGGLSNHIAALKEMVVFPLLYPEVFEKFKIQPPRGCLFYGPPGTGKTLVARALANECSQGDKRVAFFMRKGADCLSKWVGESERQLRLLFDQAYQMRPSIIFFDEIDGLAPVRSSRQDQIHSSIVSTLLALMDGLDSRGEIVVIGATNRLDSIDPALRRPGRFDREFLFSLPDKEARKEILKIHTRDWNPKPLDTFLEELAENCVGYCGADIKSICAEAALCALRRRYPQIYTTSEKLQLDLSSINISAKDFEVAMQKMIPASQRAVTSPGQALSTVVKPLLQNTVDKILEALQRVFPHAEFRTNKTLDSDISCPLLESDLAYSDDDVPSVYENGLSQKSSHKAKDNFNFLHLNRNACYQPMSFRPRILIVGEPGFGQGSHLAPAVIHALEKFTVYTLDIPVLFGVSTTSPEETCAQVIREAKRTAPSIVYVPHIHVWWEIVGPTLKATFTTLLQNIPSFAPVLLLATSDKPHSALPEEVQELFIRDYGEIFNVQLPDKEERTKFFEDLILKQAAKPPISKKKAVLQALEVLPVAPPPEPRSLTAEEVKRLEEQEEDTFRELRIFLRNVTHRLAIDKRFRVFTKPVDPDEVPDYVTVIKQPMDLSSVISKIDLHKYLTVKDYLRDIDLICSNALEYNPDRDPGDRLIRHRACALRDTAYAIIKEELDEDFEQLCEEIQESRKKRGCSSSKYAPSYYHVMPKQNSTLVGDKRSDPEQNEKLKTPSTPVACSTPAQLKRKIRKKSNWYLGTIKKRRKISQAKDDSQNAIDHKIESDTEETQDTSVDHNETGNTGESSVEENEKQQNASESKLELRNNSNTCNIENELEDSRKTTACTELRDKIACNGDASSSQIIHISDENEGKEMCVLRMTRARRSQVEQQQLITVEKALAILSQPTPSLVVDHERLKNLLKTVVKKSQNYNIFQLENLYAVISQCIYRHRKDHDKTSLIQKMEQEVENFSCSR

[3] = target: T1, Bromodomain-containing protein 4; assay: Inhibition of H4K5/8/12/16-Ac-biotin binding to human BRD4 bromodomain-1 by Alpha screen assay
[4] = target: T3, 3-dehydroquinate dehydratase (Helicobacter pylori (strain ATCC 700392 / 26695) (Campylobacterpylori), UniProt Q48255); assay: Inhibition of Helicobacter pylori DHQ2
T3 sequence (Q48255 whole entry): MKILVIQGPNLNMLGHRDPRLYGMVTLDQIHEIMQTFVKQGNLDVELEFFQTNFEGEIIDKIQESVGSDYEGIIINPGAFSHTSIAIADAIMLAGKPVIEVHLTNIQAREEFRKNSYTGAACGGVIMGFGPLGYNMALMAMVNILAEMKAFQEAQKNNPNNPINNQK

CREB-binding protein = CREB-binding protein (Homo sapiens, UniProt Q92793); assay: Inhibition of H4K5/8/12/16-Ac-biotin binding to human CREBBP by Alpha screen assay
Chain of CREB-binding protein (Q92793 whole entry): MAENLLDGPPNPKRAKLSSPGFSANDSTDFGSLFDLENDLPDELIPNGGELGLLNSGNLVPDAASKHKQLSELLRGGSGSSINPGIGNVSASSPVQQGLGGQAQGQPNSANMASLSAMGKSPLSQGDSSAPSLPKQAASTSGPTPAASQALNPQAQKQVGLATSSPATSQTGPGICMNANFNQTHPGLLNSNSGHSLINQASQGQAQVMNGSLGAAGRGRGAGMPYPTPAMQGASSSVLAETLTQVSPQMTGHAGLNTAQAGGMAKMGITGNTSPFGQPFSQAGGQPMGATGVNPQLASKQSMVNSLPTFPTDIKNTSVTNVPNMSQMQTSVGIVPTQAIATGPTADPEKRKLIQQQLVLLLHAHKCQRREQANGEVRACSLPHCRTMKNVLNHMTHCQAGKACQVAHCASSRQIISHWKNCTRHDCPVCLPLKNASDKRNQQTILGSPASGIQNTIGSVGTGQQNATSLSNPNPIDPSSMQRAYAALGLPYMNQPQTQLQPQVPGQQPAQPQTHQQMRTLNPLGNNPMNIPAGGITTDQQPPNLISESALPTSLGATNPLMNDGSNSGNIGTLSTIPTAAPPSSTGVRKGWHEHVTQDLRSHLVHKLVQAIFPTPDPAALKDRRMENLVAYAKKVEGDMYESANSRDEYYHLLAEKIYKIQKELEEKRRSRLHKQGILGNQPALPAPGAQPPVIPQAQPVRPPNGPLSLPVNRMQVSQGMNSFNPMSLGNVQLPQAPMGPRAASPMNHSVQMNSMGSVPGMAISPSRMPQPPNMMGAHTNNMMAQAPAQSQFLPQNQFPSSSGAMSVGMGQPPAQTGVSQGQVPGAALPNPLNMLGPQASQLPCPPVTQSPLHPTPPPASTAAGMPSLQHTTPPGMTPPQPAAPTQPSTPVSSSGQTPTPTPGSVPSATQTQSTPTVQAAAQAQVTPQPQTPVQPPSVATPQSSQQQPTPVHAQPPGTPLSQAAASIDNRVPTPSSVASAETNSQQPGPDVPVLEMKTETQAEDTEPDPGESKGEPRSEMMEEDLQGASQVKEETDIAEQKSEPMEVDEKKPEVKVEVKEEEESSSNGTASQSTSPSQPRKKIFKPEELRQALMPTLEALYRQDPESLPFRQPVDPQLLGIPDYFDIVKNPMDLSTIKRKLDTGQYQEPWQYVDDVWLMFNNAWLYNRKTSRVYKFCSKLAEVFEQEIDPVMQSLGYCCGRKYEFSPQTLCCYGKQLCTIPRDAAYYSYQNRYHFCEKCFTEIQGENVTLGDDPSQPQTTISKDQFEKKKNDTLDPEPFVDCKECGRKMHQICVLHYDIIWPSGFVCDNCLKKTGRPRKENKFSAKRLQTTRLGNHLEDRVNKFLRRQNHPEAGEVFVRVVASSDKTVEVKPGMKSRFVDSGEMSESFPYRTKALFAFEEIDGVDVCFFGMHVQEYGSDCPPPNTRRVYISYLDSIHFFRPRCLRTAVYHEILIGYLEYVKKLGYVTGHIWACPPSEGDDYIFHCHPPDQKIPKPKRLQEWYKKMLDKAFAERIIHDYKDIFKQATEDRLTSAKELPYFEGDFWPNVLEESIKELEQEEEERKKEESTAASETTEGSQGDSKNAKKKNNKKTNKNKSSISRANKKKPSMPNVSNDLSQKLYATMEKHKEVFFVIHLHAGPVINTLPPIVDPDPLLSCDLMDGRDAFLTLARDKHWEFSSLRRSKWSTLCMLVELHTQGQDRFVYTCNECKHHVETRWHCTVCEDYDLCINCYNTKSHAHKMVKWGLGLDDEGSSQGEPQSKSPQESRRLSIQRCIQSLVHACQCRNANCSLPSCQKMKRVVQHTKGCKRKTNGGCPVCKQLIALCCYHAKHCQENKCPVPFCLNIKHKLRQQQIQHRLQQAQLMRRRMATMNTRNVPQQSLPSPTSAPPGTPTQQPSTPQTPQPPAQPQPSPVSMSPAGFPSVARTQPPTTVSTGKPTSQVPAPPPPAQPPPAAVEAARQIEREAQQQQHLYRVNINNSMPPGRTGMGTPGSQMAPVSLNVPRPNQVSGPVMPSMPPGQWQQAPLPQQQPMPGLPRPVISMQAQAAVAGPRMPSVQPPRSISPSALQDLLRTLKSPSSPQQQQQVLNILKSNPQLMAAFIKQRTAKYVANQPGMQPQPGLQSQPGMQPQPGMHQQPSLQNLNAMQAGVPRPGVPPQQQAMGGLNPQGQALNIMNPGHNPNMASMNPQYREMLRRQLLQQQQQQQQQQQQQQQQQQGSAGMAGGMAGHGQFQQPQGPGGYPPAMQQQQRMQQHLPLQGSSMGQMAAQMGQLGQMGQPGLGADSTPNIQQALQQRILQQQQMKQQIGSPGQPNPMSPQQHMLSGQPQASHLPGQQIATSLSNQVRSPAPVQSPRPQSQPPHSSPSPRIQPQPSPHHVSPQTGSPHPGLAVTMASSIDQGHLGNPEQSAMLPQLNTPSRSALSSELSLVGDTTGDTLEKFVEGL

Chain of Beta-secretase 1 (P56817 whole entry): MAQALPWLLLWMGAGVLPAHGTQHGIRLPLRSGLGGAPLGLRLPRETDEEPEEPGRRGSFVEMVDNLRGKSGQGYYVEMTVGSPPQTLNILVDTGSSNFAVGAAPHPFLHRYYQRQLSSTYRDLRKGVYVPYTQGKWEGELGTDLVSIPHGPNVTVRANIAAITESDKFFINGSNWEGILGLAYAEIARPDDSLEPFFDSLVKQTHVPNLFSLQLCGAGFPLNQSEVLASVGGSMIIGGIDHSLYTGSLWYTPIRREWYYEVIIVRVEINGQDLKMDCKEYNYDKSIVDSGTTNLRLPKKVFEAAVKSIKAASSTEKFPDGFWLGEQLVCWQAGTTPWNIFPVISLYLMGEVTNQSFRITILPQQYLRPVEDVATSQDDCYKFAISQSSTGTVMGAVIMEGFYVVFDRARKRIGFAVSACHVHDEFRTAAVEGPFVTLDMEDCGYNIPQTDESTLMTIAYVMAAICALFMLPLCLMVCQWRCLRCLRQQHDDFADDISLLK

Structure (SMILES): O=C(O)c1cc(-c2ccc(/C=N/Nc3nc(Nc4ccc(F)cc4)nc(N4CCOCC4)n3)o2)ccc1Cl
- IC50 (Beta-secretase 1): 7 µM

Structure (SMILES): CC(=O)N(C)c1cccc(-c2ccc3nnc(C)n3n2)c1
- Kd [1]: 7 µM

Structure (SMILES): Cc1ccc(OCCCC(=O)Nc2nc(C)c(C)s2)cc1
- IC50 [2]: 23 µM

Structure (SMILES): COc1cc(/C=C2\SC(=O)N=C2N)ccc1O
- IC50 [3]: 22 µM

Structure (SMILES): CC(C)[C@H](NC(=O)CCCn1c(=O)[nH]c2ccccc2c1=O)C(=O)O
- Ki [4]: 19 µM

Structure (SMILES): O=C1CNCC(C(=O)NCCn2nc(-c3ccccc3)ccc2=O)N1 (stereo unspecified)
- IC50 (CREB-binding protein): 55 µM
